Assay results taken from ChEMBL document CHEMBL1201862, “PubChem BioAssay data set” (2004).
Activity calls are given as the source filed them.

Legend:
[1] = target: T1, Voltage-gated N-type calcium channel alpha-1B subunit/Amyloid beta A4 precursor protein-binding family A member 1 (Homo sapiens, UniProt Q00975+Q02410); type: protein assay
[2] = target: T1, Voltage-gated N-type calcium channel alpha-1B subunit/Amyloid beta A4 precursor protein-binding family A member 1; type: protein assay; remark: listed apart in the source
[3] = target: T2, Carboxy-terminal domain RNA polymerase II polypeptide A small phosphatase 1 (Homo sapiens, UniProt Q9GZU7); test: CTDSP1 inhibitors, concentration-response, biochemical, absorbance readout, ultra-high-throughput screen actives (AID 540297); type: functional
T2 sequence (Q9GZU7 whole entry): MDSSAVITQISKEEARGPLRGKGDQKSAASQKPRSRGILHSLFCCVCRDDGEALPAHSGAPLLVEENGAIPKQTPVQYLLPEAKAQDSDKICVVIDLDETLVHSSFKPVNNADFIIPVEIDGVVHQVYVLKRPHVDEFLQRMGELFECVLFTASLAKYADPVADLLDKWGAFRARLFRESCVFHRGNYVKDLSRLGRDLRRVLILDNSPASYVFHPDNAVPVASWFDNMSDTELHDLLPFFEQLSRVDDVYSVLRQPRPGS

[4] = target: Protein Tat (Human immunodeficiency virus type 1 group M subtype B (isolate HXB2)(HIV-1), UniProt P04608); type: functional;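 further: tat binding to TAR RNA read out by fluorescence polarization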
[5] = target: Mitogen-activated protein kinase 10 (Homo sapiens, UniProt P53779); test: Dose response biochemical screening assay for inhibitors of c-Jun N-Terminal Kinase 3 (JNK3). [Related pubchem assays: 746 ]
[6] = target: T3, Tyrosine-protein phosphatase non-receptor type 7 (Homo sapiens, UniProt P35236); test: HePTP tyrosine phosphatase activity blockers – biochemical, absorbance, leukemia target, primary screen (AID 521); type: functional
T3 sequence (P35236 whole entry): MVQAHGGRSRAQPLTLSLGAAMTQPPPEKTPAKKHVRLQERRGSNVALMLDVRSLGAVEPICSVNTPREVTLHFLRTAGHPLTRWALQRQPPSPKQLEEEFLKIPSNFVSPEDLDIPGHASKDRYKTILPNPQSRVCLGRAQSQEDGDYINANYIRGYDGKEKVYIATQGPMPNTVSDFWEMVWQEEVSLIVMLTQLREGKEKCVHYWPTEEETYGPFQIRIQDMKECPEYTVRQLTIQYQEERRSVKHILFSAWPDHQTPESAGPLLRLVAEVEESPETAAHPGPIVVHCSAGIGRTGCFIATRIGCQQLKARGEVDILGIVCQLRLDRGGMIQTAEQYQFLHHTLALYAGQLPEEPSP

[7] = target: E3 ubiquitin-protein ligase Mdm2 (Homo sapiens, UniProt Q00987); test: MDM2-luc reporter signal enhancers, multi-concentration potency testing, MDM2 ubiquitin-protein ligase inhibitor program, whole-cell format, luminescence detection, 384-well microplate (AID 1394); type: functional;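 further: MDM2 E3 inhibitors raise luminescence so EC50 is for signal enhancement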
[8] = test system: BJ; test: BJ-TERT fibroblast viability loss – cell-based, RAS-independent, luminescence, dose response (AID 1933); type: functional; conditions: Homo sapiens
[9] = test system: BJ; test: cells; type: functional, cell-based; conditions: Homo sapiens
[10] = test system: BJ; test: BJ-TERT-LT-ST fibroblast viability loss – cell-based, RAS-independent, luminescence, dose response (AID 1935); type: functional; conditions: Homo sapiens;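 further: BJ fibroblasts immortalized with TERT plus LT and ST oncogenes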
[11] = DRD fibroblast viability loss – cell-based, non-viral oncogenic, luminescence, dose response (AID 1934); type: functional; conditions: Homo sapiens
[12] = test system: Vero; test: cells; type: functional, cell-based; conditions: Chlorocebus sabaeus
[13] = test system: Vero; test: cells; type: functional, Chlorocebus sabaeus; conditions: Chlorocebus sabaeus, Vero
[14] = reduction of Shn3 3'UTR-driven luciferase in osteoblasts – cell-based, Clone20 osteoblasts, firefly luciferase, cherry-picked, dose response (AID 624132); type: functional;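 further: firefly luciferase luminescence from reporter carrying the Shn3 3'UTR in osteoblasts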
[15] = loss of viability in HepG2 cells – cell-based, CellTiter-Glo, cherry-picked, cytotoxicity control for Shn3 inhibitor project, dose response (AID 624134); type: functional
[16] = non-specific 3'UTR reporter inhibition in Clone20-Shn3RL – cell-based, Renilla luciferase, cherry-picked, counter-screen for Shn3 inhibitor project, dose response (AID 624133); type: functional
[17] = target: T4, COUP transcription factor 2 (Homo sapiens, UniProt P24468); test: Luminescence-based cell-based high throughput dose response assay to identify inhibitors of COUP-TFII (NR2F2).; type: functional;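 further: HEK293 cells transiently cotransfected with COUP-TFII expression vector and reporter; luciferase reporter luminescence driven by COUP-TFII from the pX2-168 reporter plasmid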
T4 sequence (P24468 whole entry): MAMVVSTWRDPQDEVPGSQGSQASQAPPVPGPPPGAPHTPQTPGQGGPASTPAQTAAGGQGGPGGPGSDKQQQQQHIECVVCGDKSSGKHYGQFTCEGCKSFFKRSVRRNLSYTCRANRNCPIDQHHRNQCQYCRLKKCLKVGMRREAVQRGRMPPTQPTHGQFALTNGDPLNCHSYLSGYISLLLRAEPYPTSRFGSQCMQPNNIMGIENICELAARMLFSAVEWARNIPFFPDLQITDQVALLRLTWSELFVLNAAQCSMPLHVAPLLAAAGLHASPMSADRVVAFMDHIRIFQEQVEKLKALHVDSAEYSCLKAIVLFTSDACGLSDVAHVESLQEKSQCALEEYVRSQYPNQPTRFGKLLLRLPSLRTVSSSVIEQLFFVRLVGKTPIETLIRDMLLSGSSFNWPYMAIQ

[18] = A549 cell cytotoxicity, dose response, cytotoxicity control, plate reader, cherry-pick, antagonist series (AID 743412); type: functional, cell-based
[19] = toxicity toward HepG2 liver cells – cell-based, plate reader, cherry-pick, antagonist series, cytotoxicity control, dose response (AID 743416); type: functional
[20] = blockers of bursicon-stimulated LGR2 cAMP reporter – cell-based, HEK293, CRE-luciferase reporter, cherry pick, set 2, dose response (AID 743343); type: functional;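 further: transfected cells were stimulated with diluted bursicon conditioned medium after compound addition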
[21] = blockade of melanocortin 4 receptor signaling – cell-based, plate reader, cherry pick, counter-screen for LGR2 antagonist project, dose response (AID 743444); type: functional;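 further: transfected HEK 293 cells stimulated with alpha-MSH peptide; potency of inhibitors of the alpha-MSH evoked signal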
[22] = viability loss in HEK293 cells – cell-based, plate reader, cherry-picked samples, cytotoxicity control, dose response (AID 743446); type: functional
[23] = target: 5-hydroxytryptamine receptor 1A (Homo sapiens, UniProt P08908); type: functional
[24] = viability inhibitors of stage V gametocytes – luminescence, dose response (AID 1117278); type: functional, cell-based;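 further: gametocytes exposed to compound for 24 hours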
[25] = viability loss in human Jurkat cells – cell-based, luminescence, cytotoxicity control for P. falciparum gametocyte viability project, dose response (AID 1117277); type: functional;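 further: potency reflects loss of cellular ATP meaning fewer viable cells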
[26] = NIH-3T3 fibroblast cytotoxicity, dose response, cytotoxicity control, cell-based, fluorescence, Alamar Blue, secondary assay (AID 2327); type: functional;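 further: NIH-3T3 mouse fibroblasts cultured with fluconazole at 8 µg/mL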
[27] = viability of uninfected HEp-2 cells – cell-based, HTS, cytotoxicity control for RSV inhibitor project, dose response (AID 2410); type: functional; conditions: human respiratory syncytial virus
[28] = target: T5, Heat shock factor protein 1 (Mus musculus, UniProt P38532); test: decrease of HSF1-responsive luciferase luminescence – cell-based, NIH3T3, dose retest, confirmation (AID 2382); type: functional;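 further: NIH3T3 fibroblasts with HSF1-driven luciferase reporter stressed by proteasome inhibitor MG132; luminescence from HSF1-driven luciferase expression after 8 hours of MG132 stress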
T5 sequence (P38532 whole entry): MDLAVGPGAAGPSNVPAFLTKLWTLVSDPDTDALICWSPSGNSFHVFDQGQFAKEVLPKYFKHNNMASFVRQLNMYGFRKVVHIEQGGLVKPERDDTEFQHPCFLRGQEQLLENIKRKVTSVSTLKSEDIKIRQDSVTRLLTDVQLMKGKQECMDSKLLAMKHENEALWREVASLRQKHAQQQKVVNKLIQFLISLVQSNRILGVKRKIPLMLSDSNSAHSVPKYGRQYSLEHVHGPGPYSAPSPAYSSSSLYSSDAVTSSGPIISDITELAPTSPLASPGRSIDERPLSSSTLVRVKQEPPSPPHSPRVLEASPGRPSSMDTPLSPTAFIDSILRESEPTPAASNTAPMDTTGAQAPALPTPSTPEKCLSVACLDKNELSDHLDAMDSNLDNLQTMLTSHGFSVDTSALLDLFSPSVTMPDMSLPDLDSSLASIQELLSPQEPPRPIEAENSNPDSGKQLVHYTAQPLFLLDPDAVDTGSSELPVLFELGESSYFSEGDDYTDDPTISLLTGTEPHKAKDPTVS

[29] = fluconazole-exposed Candida albicans growth modulators – fluorescence, retest, confirmation (AID 2467); type: functional, cell-based
[30] = target: Ephrin type-A receptor 4 (Mus musculus, UniProt Q03137); test: EphA4 ligand-binding antagonists – biochemical, colorimetric, mouse EphA4, primary screen (AID 689); type: functional
[31] = target: Ubiquitin carboxyl-terminal hydrolase BAP1 (Homo sapiens, UniProt Q92560); test: inhibition of BAP1 ubiquitin hydrolase activity – biochemical, dose response (AID 714); type: functional
[32] = rise of 2N DNA cells, HeLa – IC50, dose response (AID 1117349); type: functional, cell-based
[33] = CellTiter-Glo luminescence survival assay, SW480 colon tumor line, concentration-response curve, half-maximal inhibitory concentration (AID 1117338); type: functional
[34] = cytotoxicity toward HCT116 cells – cell-based, CellTiter-Glo luminescence, IC50, dose response (AID 1117332); type: functional; conditions: HCT-116
[35] = SNU-C1 cell viability reduction, dose response, CellTiter-Glo luminescence (AID 1117323); type: functional, cell-based
[36] = cytotoxicity toward HT-29 cells – cell-based, CellTiter-Glo luminescence, IC50, dose response (AID 1117330); type: functional
[37] = Reduced DLD-1 viability, concentration-response, CellTiter-Glo luminescence (AID 1117352); type: functional
[38] = HCT116 cell viability decrease, GSK3B pretreatment – CellTiter-Glo, IC50, dose response (AID 1117339); type: functional; conditions: HCT-116
[39] = growth inhibition of yeast DHODH-expressing 3D7 parasites – SYBR Green, dry powder samples, dose response (AID 1159570); type: functional, cell-based;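 further: parasite growth measured after 72 hours of compound exposure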
[40] = toxicity to human HepG2 hepatoma cells – cell-based, plate reader, dry powder samples, cytotoxicity control, dose response (AID 1159569); type: functional;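 further: inhibitor potency with signal falling toward the positive control level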
[41] = Dd2 parasite growth inhibition in erythrocytes – SYBR Green, dry powder samples, set 9, dose response (AID 1159568); type: functional, cell-based
[42] = P. falciparum Dd2 growth inhibitors, dose response, SYBR Green, cherry-picked samples (AID 1159567); type: functional, cell-based
[43] = Dd2 malaria parasite growth inhibition potency – SYBR Green, dry powder samples, dose response (AID 1159566); type: functional, cell-based;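 further: potency for growth inhibition with lower SYBR green DNA signal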
[44] = toxicity to human hepatoma HepG2 cells – cell-based, cherry-picked samples, cytotoxicity control, dose response (AID 1159577); type: functional
[45] = Plasmodium falciparum Dd2 Sybr green parasite growth Measured in Cell-Based and Microorganism Combination System Using Plate Reader - 2153-01_Inhibitor_Dose_DryPowder_Activity_Set3.; type: functional
[46] = growth inhibition of PfATP4-mutant resistant parasites – NITD609-resistant line, SYBR Green, dry powder, dose response (AID 1159571); type: functional, cell-based;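 further: parasites synchronized at ring stage by sorbitol before testing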
[47] = IC50 of insulin release inhibition, rat insulinoma INS-1E line, 5 mM glucose, cell-based (AID 1117331); type: functional
[48] = cells; type: functional, cell-based; conditions: INS-1E
[49] = rise of 4N DNA cells, HeLa – IC50, dose response (AID 1117351); type: functional, cell-based

T1 sequence (Q00975 whole entry): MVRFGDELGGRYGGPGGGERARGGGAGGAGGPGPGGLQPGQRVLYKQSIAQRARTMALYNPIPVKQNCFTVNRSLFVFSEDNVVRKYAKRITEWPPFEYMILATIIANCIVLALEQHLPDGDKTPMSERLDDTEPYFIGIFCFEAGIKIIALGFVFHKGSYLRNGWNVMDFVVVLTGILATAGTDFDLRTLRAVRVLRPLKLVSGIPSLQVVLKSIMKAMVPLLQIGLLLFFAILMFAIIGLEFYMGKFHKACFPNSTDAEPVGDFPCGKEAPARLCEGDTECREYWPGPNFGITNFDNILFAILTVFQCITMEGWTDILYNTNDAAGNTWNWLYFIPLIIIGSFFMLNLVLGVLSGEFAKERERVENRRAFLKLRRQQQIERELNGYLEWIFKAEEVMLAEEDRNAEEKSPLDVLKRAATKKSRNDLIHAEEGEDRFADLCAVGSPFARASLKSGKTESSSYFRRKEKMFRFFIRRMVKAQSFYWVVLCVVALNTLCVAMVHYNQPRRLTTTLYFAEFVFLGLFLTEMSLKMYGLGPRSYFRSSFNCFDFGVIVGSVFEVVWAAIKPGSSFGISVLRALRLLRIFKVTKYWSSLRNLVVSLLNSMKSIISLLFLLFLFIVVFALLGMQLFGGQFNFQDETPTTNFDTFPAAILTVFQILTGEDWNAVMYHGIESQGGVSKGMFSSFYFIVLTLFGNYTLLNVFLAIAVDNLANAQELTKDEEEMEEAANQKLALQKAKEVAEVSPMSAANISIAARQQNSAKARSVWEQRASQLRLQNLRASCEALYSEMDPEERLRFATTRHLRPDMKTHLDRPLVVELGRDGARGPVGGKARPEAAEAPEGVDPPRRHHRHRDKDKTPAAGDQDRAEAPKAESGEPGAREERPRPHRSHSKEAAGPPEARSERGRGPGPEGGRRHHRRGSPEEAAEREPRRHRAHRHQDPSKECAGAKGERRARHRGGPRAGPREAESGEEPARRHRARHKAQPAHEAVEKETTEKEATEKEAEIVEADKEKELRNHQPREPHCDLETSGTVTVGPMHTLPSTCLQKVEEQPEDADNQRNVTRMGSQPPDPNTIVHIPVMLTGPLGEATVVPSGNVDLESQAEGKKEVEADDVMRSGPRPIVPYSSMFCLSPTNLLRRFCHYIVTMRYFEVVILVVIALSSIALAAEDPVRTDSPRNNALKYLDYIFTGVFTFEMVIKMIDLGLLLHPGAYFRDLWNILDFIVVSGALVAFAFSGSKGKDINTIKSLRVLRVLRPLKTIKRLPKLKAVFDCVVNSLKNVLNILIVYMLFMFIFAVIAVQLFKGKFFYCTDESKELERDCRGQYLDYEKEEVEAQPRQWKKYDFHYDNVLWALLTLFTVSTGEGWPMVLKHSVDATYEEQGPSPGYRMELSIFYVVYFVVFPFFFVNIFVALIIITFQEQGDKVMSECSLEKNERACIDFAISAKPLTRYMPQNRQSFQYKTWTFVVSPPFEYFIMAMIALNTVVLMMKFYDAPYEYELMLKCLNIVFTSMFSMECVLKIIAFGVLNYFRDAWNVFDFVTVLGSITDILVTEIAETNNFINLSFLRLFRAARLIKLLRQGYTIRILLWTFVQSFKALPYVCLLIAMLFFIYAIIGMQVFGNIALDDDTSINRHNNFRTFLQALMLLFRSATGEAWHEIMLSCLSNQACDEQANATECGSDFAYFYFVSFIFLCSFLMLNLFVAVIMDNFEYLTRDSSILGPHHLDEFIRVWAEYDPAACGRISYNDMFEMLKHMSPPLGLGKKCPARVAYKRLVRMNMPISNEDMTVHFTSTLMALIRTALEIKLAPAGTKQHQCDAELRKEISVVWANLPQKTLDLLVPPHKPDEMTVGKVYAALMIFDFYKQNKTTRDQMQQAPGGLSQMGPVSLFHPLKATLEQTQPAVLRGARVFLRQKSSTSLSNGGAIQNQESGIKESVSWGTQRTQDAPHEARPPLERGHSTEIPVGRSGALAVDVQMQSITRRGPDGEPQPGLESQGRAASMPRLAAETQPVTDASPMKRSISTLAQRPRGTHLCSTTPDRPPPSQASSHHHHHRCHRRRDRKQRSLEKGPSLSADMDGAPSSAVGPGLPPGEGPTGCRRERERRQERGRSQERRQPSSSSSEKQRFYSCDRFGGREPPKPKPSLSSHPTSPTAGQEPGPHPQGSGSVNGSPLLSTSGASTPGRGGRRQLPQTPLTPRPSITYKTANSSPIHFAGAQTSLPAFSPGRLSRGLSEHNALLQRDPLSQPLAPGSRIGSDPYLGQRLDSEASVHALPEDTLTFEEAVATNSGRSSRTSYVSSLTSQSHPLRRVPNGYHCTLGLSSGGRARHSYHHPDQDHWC
T1 sequence (Q02410 whole entry): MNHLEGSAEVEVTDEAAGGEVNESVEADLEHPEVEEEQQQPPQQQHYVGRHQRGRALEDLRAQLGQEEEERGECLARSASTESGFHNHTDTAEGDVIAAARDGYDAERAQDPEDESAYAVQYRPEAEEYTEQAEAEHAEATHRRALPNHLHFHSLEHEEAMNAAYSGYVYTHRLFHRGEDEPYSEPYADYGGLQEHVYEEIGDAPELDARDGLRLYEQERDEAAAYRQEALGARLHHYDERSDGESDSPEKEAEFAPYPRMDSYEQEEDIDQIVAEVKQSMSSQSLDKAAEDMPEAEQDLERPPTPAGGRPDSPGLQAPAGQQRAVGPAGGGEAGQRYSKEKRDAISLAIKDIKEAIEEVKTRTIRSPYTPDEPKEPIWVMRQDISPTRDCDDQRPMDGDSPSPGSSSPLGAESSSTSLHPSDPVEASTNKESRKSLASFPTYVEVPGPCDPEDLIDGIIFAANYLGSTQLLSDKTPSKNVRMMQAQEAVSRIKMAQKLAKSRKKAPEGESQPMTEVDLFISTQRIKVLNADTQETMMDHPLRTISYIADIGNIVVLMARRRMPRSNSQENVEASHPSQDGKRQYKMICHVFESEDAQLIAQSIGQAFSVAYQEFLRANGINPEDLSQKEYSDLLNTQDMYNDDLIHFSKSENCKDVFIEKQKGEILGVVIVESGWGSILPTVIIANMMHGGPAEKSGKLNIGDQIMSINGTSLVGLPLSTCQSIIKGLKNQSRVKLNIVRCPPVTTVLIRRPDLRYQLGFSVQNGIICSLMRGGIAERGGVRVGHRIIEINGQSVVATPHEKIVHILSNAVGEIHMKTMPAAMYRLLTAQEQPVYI
Chain of Mitogen-activated protein kinase 10 (P53779 whole entry): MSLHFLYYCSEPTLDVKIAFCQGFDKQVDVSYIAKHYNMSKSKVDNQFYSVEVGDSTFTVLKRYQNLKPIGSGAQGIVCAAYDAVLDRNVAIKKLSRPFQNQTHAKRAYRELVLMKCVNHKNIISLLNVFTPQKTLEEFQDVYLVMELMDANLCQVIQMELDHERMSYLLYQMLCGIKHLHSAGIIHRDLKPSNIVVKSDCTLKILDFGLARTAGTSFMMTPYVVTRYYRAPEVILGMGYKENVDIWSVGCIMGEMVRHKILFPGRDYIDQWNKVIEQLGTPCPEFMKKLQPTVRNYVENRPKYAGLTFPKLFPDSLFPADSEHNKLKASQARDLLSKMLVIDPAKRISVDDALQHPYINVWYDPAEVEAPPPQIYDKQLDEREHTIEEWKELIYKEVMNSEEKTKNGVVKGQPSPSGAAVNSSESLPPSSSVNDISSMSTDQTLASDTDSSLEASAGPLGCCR
Chain of Ubiquitin carboxyl-terminal hydrolase BAP1 (Q92560 whole entry): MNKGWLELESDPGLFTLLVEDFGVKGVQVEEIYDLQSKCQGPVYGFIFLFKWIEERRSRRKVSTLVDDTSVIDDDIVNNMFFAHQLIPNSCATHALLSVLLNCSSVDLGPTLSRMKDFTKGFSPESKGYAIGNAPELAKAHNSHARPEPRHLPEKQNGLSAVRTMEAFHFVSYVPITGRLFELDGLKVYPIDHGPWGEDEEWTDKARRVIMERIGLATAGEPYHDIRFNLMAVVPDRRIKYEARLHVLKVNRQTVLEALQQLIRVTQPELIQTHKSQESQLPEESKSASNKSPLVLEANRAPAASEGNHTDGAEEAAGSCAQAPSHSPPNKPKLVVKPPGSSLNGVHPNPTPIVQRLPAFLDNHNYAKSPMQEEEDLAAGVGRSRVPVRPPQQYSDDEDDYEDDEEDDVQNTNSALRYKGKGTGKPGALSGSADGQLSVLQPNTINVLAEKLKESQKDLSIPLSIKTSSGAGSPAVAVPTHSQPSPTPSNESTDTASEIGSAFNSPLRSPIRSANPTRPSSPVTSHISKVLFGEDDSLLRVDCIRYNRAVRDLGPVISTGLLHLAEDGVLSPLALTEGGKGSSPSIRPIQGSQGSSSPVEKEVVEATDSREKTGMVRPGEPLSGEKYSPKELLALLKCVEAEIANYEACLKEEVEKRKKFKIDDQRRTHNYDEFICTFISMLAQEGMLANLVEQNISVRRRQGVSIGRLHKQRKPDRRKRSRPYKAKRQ
Chain of E3 ubiquitin-protein ligase Mdm2 (Q00987 whole entry): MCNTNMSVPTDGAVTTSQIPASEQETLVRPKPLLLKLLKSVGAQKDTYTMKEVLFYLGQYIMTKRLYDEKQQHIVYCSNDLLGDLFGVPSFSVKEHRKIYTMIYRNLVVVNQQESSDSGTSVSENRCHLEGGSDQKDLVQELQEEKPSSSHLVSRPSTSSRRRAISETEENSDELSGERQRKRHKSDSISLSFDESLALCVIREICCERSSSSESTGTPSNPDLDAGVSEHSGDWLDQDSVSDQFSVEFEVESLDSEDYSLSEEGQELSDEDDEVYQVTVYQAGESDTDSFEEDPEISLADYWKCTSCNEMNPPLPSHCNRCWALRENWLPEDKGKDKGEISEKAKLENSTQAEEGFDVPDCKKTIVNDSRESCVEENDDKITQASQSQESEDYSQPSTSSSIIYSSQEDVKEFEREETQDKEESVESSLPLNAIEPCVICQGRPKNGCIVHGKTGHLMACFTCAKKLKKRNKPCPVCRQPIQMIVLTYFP
Chain of Protein Tat (P04608 whole entry): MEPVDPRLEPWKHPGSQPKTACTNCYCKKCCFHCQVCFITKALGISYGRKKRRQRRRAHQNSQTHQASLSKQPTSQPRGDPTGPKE

Structure (SMILES): COc1ccc(NS(=O)(=O)c2cccc(C(=O)NNC(=O)c3cccn3C)c2)cc1
- IC50 [1]: 23.5 µM (active)
- IC50 [2]: > 50 µM (inactive)
- IC50 [3]: 5.42 µM (active)
- IC50 [4]: > 100 µM (active)

Structure (SMILES): CC(C)n1nc(C(=O)OCC(=O)N(C)C2CCS(=O)(=O)C2)c2ccccc2c1=O (stereo not given)
- IC50 [5]: 35.5 µM (not active)

Structure (SMILES): CCn1c(COc2ccc(Cl)c(C)c2)nnc1SCC(=O)N1CCCC1
- IC50 [6]: > 100 µM (not active)

Structure (SMILES): CCSc1nc2ccccc2n1C(=O)/C=C/c1ccc(OC)c(OC)c1
- EC50 [7]: 2.65 µM (active)
- EC50 [8]: > 150 µM (not active)
- EC50 [9]: > 75 µM (inconclusive)
- EC50 [10]: 13.6 µM (active)
- EC50 [11]: 5.41 µM (inconclusive)
- IC50 [12]: 10.4 µM (active)
- CC50 [13]: 20.2 µM (active)
- AC50 [14]: 0.962 µM (active)
- AC50 [15]: 47 µM (active)
- AC50 [16]: 7.89 µM (active)
- IC50 [17]: 8.54 µM (active)
- AC50 [18]: 5.61 µM (active)
- AC50 [19]: 12.9 µM (active)
- AC50 [20]: 4.61 µM (active)
- AC50 [21]: 5.86 µM (active)
- AC50 [22]: 5.58 µM (active)

Structure (SMILES): CCN(CC)c1nc(N2CCOCC2)c(C#N)c2c1CN(C)CC2
- EC50 [23]: > 50 µM (not active)

Structure (SMILES): CC(CC(=O)Nc1ccc(F)c([N+](=O)[O-])c1)c1ccccc1 (stereo not given)
- IC50 [24]: > 109 µM (inactive)
- IC50 [25]: > 83.3 µM (inactive)

Structure (SMILES): COc1ccc(NC2=Nc3ccccc3N3C2=Nc2c(c(C)nn2-c2ccc(C)cc2)C3c2cccnc2)cc1 (stereo not given)
- EC50 [26]: 53.8 µM (active)
- CC50 [27]: > 50 µM (active)
- EC50 [28]: > 195 µM (not active)
- EC50 [29]: > 38 µM (not active)
- IC50 [30]: 10.4 µM (active)

Structure (SMILES): N#Cc1c(NC(=O)CSc2nnnn2C2CCCCC2)sc2c1CCCC2
- IC50 [31]: > 50 µM (not active)

Structure (SMILES): CC(C)C[C@H](NC(=O)[C@H](Cc1ccccc1)NC(=O)c1cnccn1)B(O)O
- IC50 [32]: 0.0078 µM (active)
- IC50 [33]: 0.00513 µM (active)
- IC50 [34]: 0.00365 µM (active)
- IC50 [35]: 0.0032 µM (active)
- IC50 [36]: 0.00315 µM (active)
- IC50 [37]: 0.00636 µM (active)
- IC50 [38]: 0.00241 µM (active)

Structure (SMILES): COc1ccc(-c2ccc([C@H]3[C@@H](C#N)N(C(=O)NC(C)C)[C@@H]3CO)cc2)cc1
- AC50 [39]: 14.7 µM (active)
- AC50 [40]: 78 µM (active)
- AC50 [41]: 0.604 µM (active)
- AC50 [42]: 0.725 µM (active)
- AC50 [43]: 0.472 µM (active)
- AC50 [44]: > 39 µM (inactive)
- AC50 [45]: 0.511 µM (active)
- AC50 [46]: 0.528 µM (active)

Structure (SMILES): CCN(CC)CCOc1ccccc1C(=O)CCc1ccccc1 [ETAFENONE]
- IC50 [32]: > 10 µM (inactive)
- IC50 [47]: 3.89 µM (active)
- IC50 [48]: > 33.3 µM (inactive)
- IC50 [49]: > 10 µM (inactive)
